The record followed here is patent publication US5240935A, “Substituted 2-azabicyclo[2.2.2]octane derivatives and compositions and method of use thereof” (Sterling Winthrop Inc., priority 1992, dated 1993).

pKi: −log10 of the molar value. Where a name gives a salt, the structure may show the parent alone. Read-outs that look alike come from different tables or passages of the source.

For test [1], the system named is sigma receptors. Description: sigma receptor binding, [^3 H]di(2-tolyl)guanidine (DTG), guinea pig brain membranes. Set-up: species or system guinea pig (male Hartley). As to conditions: [^3 H]DTG approx. 4 nM, 25° C., 90 min; for Percent Inhibition of [^3 H]DTG binding: at 10 μM; for pKi: mean of at least two separate determinations in triplicate, EBDA/LIGAND.
Description: Brain tissue was prepared from male Hartley guinea pigs (Hazelton Labs, Denver, Pa.) which were anesthetized with CO2 and sacrificed by decapitation. […] Homogenization was performed in 10 volumes (wt/vol) of 0.32M sucrose with a Brinkmann Polytron at setting 5, 30 sec. The homogenate was centrifuged at 900×g for 10 min at 4° C., and the supernatant was collected and centrifuged at 22,000×g for 20 min at 4° C. The pellet was resuspended in 10 volumes of Tris-HCl buffer (50 mM, pH 7.4), incubated at 37° C. for 30 min, and centrifuged at 22,000×g for 20 min at 4° C. Following this, the pellet was resuspended in Tris buffer and frozen in 5-10 mL aliquots corresponding to a tissue concentration of 100 mg/mL, at -70° C. Binding characteristics of the membranes were stable for at least one month when stored at -70° C.
In test [2] the target is T1, sigma receptors (Cavia porcellus, UniProt Q60492).
T1 construct: Brain tissue was prepared from male Hartley guinea pigs; from tissue; host or cells: brain membranes of male Hartley guinea pigs (22,000 x g pellet)
Description: sigma receptor binding, [^3 H](+)-pentazocine, guinea pig brain membranes. Details: species or system guinea pig (male Hartley). Particulars: for inhibition at 10 µM: read-out: Percent Inhibition of [^3 H](+)-pentazocine binding; for pKi: mean of at least two separate determinations in triplicate, EBDA/LIGAND. How it is done:
Brain tissue was prepared from male Hartley guinea pigs (Hazelton Labs, Denver, Pa.) which were anesthetized with CO2 and sacrificed by decapitation. All animal care and use procedures were in accord with the "Guide for the Care and Use of Laboratory Animals" (NIH Publ. No. 86-23, 1985). Homogenization was performed in 10 volumes (wt/vol) of 0.32M sucrose with a Brinkmann Polytron at setting 5, 30 sec. The homogenate was centrifuged at 900×g for 10 min at 4° C., and the supernatant was collected and centrifuged at 22,000×g for 20 min at 4° C. The pellet was resuspended in 10 volumes of Tris-HCl buffer (50 mM, pH 7.4), incubated at 37° C. for 30 min, and centrifuged at 22,000×g for 20 min at 4° C. Following this, the pellet was resuspended in Tris buffer and frozen in 5-10 mL aliquots corresponding to a tissue concentration of 100 mg/mL, at -70° C. Binding characteristics of the membranes were stable for at least one month when stored at -70° C.
On the day of the assay, membrane aliquots were thawed, resuspended in fresh Tris-HCl buffer and stored on ice until use. Each assay tube contained 100 μL of [^3 H]-(+)-pentazocine at a final concentration of approximately 0.5 nM or 100 μL of [^3 H]-di(2-tolyl)guanidine (DTG) at a final concentration of approximately 4 nM, 100 μL of various concentrations of the compounds of interest, 500 μL of the tissue suspension and 300 μL of buffer to a final assay volume of 1 mL and a final tissue concentration of approximately 8 mg/tube, corresponding to approximately 0.15 mg protein/tube. Non-specific binding was defined by addition of a final concentration of 1 μM haloperidol to blank tubes for [^3 H](+)-pentazocine assay or by addition of a final concentration of 10 μM haloperidol to blank tubes for [^3 H]DTG assay. All tubes were incubated at 37° C. for 150 min in the [^3 H](+)-pentazocine assay or at 25° C. for 90 min in the [^3 H]DTG assay before termination of the reaction by rapid filtration over Whatman GF/B glass fiber filters that were presoaked in a solution of 0.5% polyethylenimine for at least 1 hr prior to use. Filters were washed with three 4 ml volumes of cold Tris-HCl buffer.
Following addition of scintillation cocktail, samples were allowed to equilibrate for at least 4 hr. The amount of bound radioactivity was determined by liquid scintillation spectrometry using a Beckman LS 5000 TA liquid scintillation counter with an efficiency for tritium of approximately 60%. The results are reported as a percent (%) inhibition of binding at 10 μM.
Scatchard parameters and inhibition constants (Ki values) for the binding of test compounds were also calculated using the EBDA/LIGAND program (McPherson, J. Pharmacol. Meth. 1985, 14, 213-228), purchased from Elsevier/Biosoft, Inc The Ki values are expressed as the mean of at least two separate determinations performed in triplicate.

The subject of test [3] is apomorphine-induced climbing. The test is described as follows: apomorphine-induced climbing assay. It counts as in vivo, mice (male, Swiss-Webster). As to conditions: Mus musculus, ip; test compound i.p.; apomorphine 5.5 mg/kg s.c.; rated 20-30 min post drug; Dunnett's Test P<0.05; read-out: Apomorphine-induced climbing assay MED (minimal effective dose for inhibition). How it is done:
(§1) Representative compounds of the invention were tested in vivo in the apomorphine-induced climbing assay and the apomorphine-induced stereotypy assay using the following procedures.
(§2) Male, Swiss-Webster mice (Taconic Farms, Germantown, New York), weight 20-30 grams, were grouped housed in colony facilities for a minimum of two days prior to testing. The colony facility was maintained on a 12 hour light/dark cycle (light: 0600-1800 hours) with water and Agway Prolab 100 rat chow available ad libitum. Each mouse was given an injection of test compound i.p. followed immediately by a s.c. injection of apomorphine 5.5 mg/kg or vehicle. All drugs were administered in a volume of 10 ml/kg body weight. The mice were then placed in individual cylindrical stainless steel climbing cages; 14.5 cm tall, 12 cm in diameter, with walls consisting of 1/16" O.D. bars spaced 0.8-1.0 cm apart, and were allowed to habituate to this environment for 20 minutes. […] Briefly, a (0) was scored for absence of any stereotypic behavior, infrequent stereotypic movements were scored as (1), a (2) was scored for permanent sniffing and a score of (3) indicated intense and continuous stereotypic behavior. Treatment means for the 10 minute totals were calculated for climbing and stereotypy. […] A minimal effective dose (MED) for inhibition was determined for each parameter based on these analyses.

For test [4], the system named is apomorphine-induced stereotypy. The test is described as follows: apomorphine-induced stereotypy assay. The test is classed as in vivo, mice (male, Swiss-Webster). Particulars: Mus musculus, ip; test compound i.p.; apomorphine 5.5 mg/kg s.c.; rated 20-30 min post drug; Dunnett's Test P<0.05; read-out: Apomorphine-induced stereotypy assay MED (minimal effective dose for inhibition). As to the method: as §1, §2

The mark [5] stands for this setting: at 10 μM, [^3 H](+)-pentazocine approx. 0.5 nM, 37° C., 150 min.
The mark [6] stands for this setting: [^3 H](+)-pentazocine approx. 0.5 nM, 37° C., 150 min.

T1 sequence (Q60492 whole entry): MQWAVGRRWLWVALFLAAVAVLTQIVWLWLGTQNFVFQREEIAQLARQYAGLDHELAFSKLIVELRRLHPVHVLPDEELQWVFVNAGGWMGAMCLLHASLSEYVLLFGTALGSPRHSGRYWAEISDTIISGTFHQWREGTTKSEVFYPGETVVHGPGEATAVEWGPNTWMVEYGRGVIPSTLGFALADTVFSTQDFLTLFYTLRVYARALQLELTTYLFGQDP

Usually inhibition stands for the relative decrease from the control value, in per cent. Take `CC1CC2C(CO)CC1(C)C(C)N2C` (stereo not shown) [Example 10, 2,3,4,8-tetramethyl-2-azabicyclo[2.2.2]octane-6-methanol]: in the test on sigma receptors [1], the “Percent Inhibition of [^3 H]DTG binding” value stood at 48%. In addition, the inhibition at 10 µM on sigma receptors [2] came out at 24%.

Consider `CC=C1CC2C(C(=O)OCC)CC1C(Cc1ccccc1)N2Cc1ccccc1` (stereo not shown) [Example 3e, ethyl 2,3-di(phenylmethyl)-8-ethylidene-2-azabicyclo-[2.2.2]octane-6-carboxylatetrihydrochloride hydrobromide], for which the “Percent Inhibition of [^3 H]DTG binding” value with sigma receptors [1] came out at 57%. Also, the inhibition at 10 µM at sigma receptors [2] (setting [5]) worked out at 33%.

In general, pKi refers to the Ki on a negative log10 scale, so that one unit is a factor of ten. A higher pKi goes with a small Ki. With `CCOC(=O)C1(SC)CC2(C)C(C)CC1N(C)C2C` (stereo not shown) [Example 6, ethyl 2,3,4,8-tetramethyl-6-(methylthio)-2-azabicyclo[2.2.2]octane-6-carboxylate], in the test on sigma receptors [1], the “Percent Inhibition of [^3 H]DTG binding” value stood at 75% and the pKi was 5.57. Moreover, the inhibition at 10 µM at sigma receptors [2] (setting [5]) was 63%. This compound also showed a pKi at sigma receptors [2] (setting [6]) of 5.23.

Regarding `CC1CC2C(C(C)(C)O)CC1(C)C(C)N2Cc1ccccc1` (stereo not drawn) [Example 7, α,α,3,4,8-pentamethyl-2-(phenylmethyl)-2-azabicyclo[2.2.2]octane-6-methanol], the pKi on sigma receptors [1] is 5.21; at sigma receptors [2] (setting [6]) it was 5.22. Besides, the inhibition at 10 µM on sigma receptors [2] (setting [5]) is 59%.

Regarding `CCOC(=O)C1(C)CC2(C)C(C)CC1N(Cc1ccccc1)C2C` (stereo not shown) [Example 8a, ethyl 2-(phenylmethyl)-3,4,6,8-tetramethyl-2-azabicyclo[2.2.2]octane-6-carboxylate], in the test on sigma receptors [1], the “Percent Inhibition of [^3 H]DTG binding” value stood at 29% and the pKi was 5.19. For the same compound, on sigma receptors [2] (setting [6]), the pKi is 5.01.

Regarding `CCOC(=O)C1CC23CCCCC2CC1N(Cc1ccccc1)C3C` (stereo not shown) [Example 5e, Ethyl 2,3,4,4a,5,6,7,8-octahydro-1-methyl-2-(phenylmethyl)-1H-3,8a-ethanoisoquinoline-10-carboxylate hydrochloride], the pKi was 6.45 at sigma receptors [1] and 6.48 at sigma receptors [2] (setting [6]). The inhibition at 10 µM on sigma receptors [2] was found to be 97%.

As a reminder, the minimal effective dose is the smallest amount tested that counted as effective. For `CCOC(=O)C1CC2(C)C(C)CC1N(Cc1ccccc1)C2C` (stereo not shown) [Example 2b, ethyl 3,4,8-trimethyl-2-(phenylmethyl)-2-azabicyclo[2.2.2]octane-6-carboxylate], the pKi on sigma receptors [1] and at sigma receptors [2] (setting [6]) was 6.62 each time. Moreover, the minimal effective dose in test [3] was determined as 317 µmol/kg; in test [4], 951 µmol/kg.

On to `CCOC(=O)C1(C(=O)OCC)CC2(C)C(C)CC1N(Cc1ccccc1)C2C` (stereo not shown) [Example 2c, diethyl 3,4,8-trimethyl-2-(phenylmethyl)-2-azabicyclo-[2.2.2] octane-6,6-dicarboxylate], for which, in the test with sigma receptors [1], the “Percent Inhibition of [^3 H]DTG binding” value turned out to be 79% and the pKi was 5.91. In addition, on sigma receptors [2] (setting [5]), the inhibition at 10 µM was found to be 79%. Further, the pKi on sigma receptors [2] (setting [6]) was 5.93.

On to `CC(=O)C1(C)CC2(C)C(C)CC1N(Cc1ccccc1)C2C` (stereo not shown) [Example 8b, 1-[3,4,6,8-tetramethyl-2-(phenylmethyl) -2-azabicyclo[2.2.2]oct-6-yl]ethanone], for which, in the test with sigma receptors [1], the “Percent Inhibition of [^3 H]DTG binding” value was 65% and the pKi was 5.34. Besides, the inhibition at 10 µM on sigma receptors [2] (setting [5]) worked out at 47%. On sigma receptors [2] (setting [6]), this compound had a pKi of 5.05.

Consider `CCOC(=O)C1CC2C(C)NC1CC2C(C)C` (stereo not shown) [Example 9e, ethyl 3-methyl-8-isopropyl-2-azabicyclo-[2.2.2]octane-6-carboxylate], for which, in the test on sigma receptors [1], the “Percent Inhibition of [^3 H]DTG binding” value is on record as 48%. Besides, the inhibition at 10 µM on sigma receptors [2] is 30%.

On to `CC(=O)C1CC2C(C(C)C)CC1N(Cc1ccccc1)C2C` (stereo not shown) [Example 11b, 1-[3-methyl-8-isopropyl-2-(phenylmethyl)-2-azabicyclo[2.2.2]octan-6-yl]-ethanone], for which, in the test with sigma receptors [1], the “Percent Inhibition of [^3 H]DTG binding” value is 86% and the pKi was 6.00. For the same compound, at sigma receptors [2] (setting [5]), the inhibition at 10 µM amounted to 77%. Also, the negative-log Ki (pKi) at sigma receptors [2] (setting [6]) is 5.58.

On to `CCOC(=O)C1CC2C(C(C)C)CC1N(Cc1ccccc1)C2C` (stereo not shown) [Example 9f, ethyl 3-methyl-8-(isopropyl)-2-(phenylmethyl)-2-azabicyclo[2.2.2]octane-6-carboxylate], for which the pKi was 7.12 on sigma receptors [1] and 6.85 at sigma receptors [2] (setting [6]). Also, the minimal effective dose in test [3] and in test [4] was 304 µmol/kg throughout.

As for `CCC1CC2C(C(C)(C)O)CC1C(Cc1ccccc1)N2C` (stereo not drawn) [Example 4e, 3-(phenylmethyl)-8-ethyl-2,α,α-trimethyl-2-azabicyclo[2.2.2]octane-6-methanol], in the test on sigma receptors [1], the “Percent Inhibition of [^3 H]DTG binding” value is given as 75% and the pKi was 5.54. Also, the inhibition at 10 µM at sigma receptors [2] (setting [5]) was 72%. On sigma receptors [2] (setting [6]), this compound showed a pKi of 5.53.
